How the values were obtained:
Type in all cases: in vivo
[1] = system: barnyardgrass (Echinochloa crus-galli); assay: Test C flooded paddy test plant response; conditions: Flood, 250 g ai/ha; scale of 0 to 100 where 0 is no effect and 100 is complete control; 13 to 15 days
In short: (§1)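 Visual injury ratings (0, no effect; 100, complete control) were assigned after 13 to 15 days in a greenhouse, comparing treated plants with controls. Compounds had been added straight into paddy water over 2-leaf-stage plants flooded to 3 cm.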

rice (Oryza sativa) = assay: Test C flooded paddy test plant response; conditions: Flood, 250 g ai/ha; scale of 0 to 100 where 0 is no effect and 100 is complete control; 13 to 15 days
In short: as §1

[2] = system: small-flower umbrella sedge (Cyperus difformis); assay: Test C flooded paddy test plant response; conditions: Flood, 250 g ai/ha; scale of 0 to 100 where 0 is no effect and 100 is complete control; 13 to 15 days
In short: as §1

[3] = system: ducksalad (Heteranthera limosa); assay: Test C flooded paddy test plant response; conditions: Flood, 250 g ai/ha; scale of 0 to 100 where 0 is no effect and 100 is complete control; 13 to 15 days
In short: as §1

[4] = system: blackgrass (Alopecurus myosuroides); assay: Test B postemergence plant response; conditions: 0 to 100 scale, 0 no effect, 100 complete control
In short: (§2)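 Visual injury ratings, 0 = no effect to 100 = complete control, versus untreated controls approximately 10 days after postemergence spraying in greenhouse. Plants were at one- to two-leaf stage, 2 to 10 cm tall, in loam soil/sand blend; a dash denotes no result.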

[5] = system: galium (catchweed bedstraw, Galium aparine); assay: Test B postemergence plant response; conditions: 125 g ai/ha, postemergence; 0 to 100 scale, 0 no effect, 100 complete control
In short: as §2

corn (Zea mays) = assay: Test B pre-/postemergence plant response; conditions: 0 to 100 scale, 0 no effect, 100 complete control
Text: (§3) Seeds of plant species selected from bamyardgrass (Echinochloa crus-galli), kochia (Kochia scoparia), ragweed (common ragweed, Ambrosia elatior), Italian ryegrass (Lolium multiflorum), large (Lg) crabgrass (Digitaria sanguinalis), giant foxtail (Setaria faberii), momingglory (Ipomoea spp.), pigweed (Amaranthus retroflexus), velvetleaf (Abutilon theophrasti), wheat (Triticum aestivum), and corn (Zea mays) were planted into a blend of loam soil and sand and treated preemergence with a directed soil spray using test chemicals formulated in a non-phytotoxic solvent mixture which included a surfactant. At the same time, plants selected from these crop and weed species and also blackgrass (Alopecurus myosuroides), and galium (catchweed bedstraw, Galium aparine) were planted in pots containing the same blend of loam soil and sand and treated with postemergence applications of test chemicals formulated in the same manner. Plants ranged in height from 2 to 10 cm and were in the one- to two-leaf stage for the postemergence treatment. Treated plants and untreated controls were maintained in a greenhouse for approximately 10 days, after which time all treated plants were compared to untreated controls and visually evaluated for injury. Plant response ratings, summarized in Table B, are based on a 0 to 100 scale where 0 is no effect and 100 is complete control. A dash (-) response means no test result.

[6] = system: barnyardgrass (Echinochloa crus-galli); assay: Test B pre-/postemergence plant response; conditions: for Barnyardgrass plant response rating: 0 to 100 scale (0 no effect, 100 complete control)
Text: as §3

[7] = system: pigweed (Amaranthus retroflexus); assay: Test B pre-/postemergence plant response; conditions: for Pigweed plant response rating: 0 to 100 scale (0 no effect, 100 complete control)
Text: as §3

[8] = system: ragweed (common ragweed, Ambrosia elatior); assay: Test B pre-/postemergence plant response; conditions: for Ragweed plant response rating: 0 to 100 scale (0 no effect, 100 complete control)
Text: as §3

[9] = system: Italian ryegrass (Lolium multiflorum); assay: Test B pre-/postemergence plant response; conditions: for Ryegrass, Italian plant response rating: 0 to 100 scale (0 no effect, 100 complete control)
Text: as §3

[10] = system: giant foxtail (Setaria faberii); assay: Test B pre-/postemergence plant response; conditions: for Foxtail, Giant plant response rating: 0 to 100 scale (0 no effect, 100 complete control)
Text: as §3

[11] = system: wheat (Triticum aestivum); assay: Test B pre-/postemergence plant response; conditions: 125 g ai/ha, postemergence; 0 to 100 scale, 0 no effect, 100 complete control
Text: as §3

kochia (Kochia scoparia) = assay: Test B pre-/postemergence plant response; conditions: for Kochia plant response rating: 0 to 100 scale (0 no effect, 100 complete control)
Text: as §3

[12] = 31 g ai/ha, Postemergence, 0 to 100 scale, 0 no effect, 100 complete control
[13] = 31 g ai/ha, Preemergence, 0 to 100 scale where 0 is no effect and 100 is complete control
[14] = 125 g ai/ha, postemergence, 0 to 100 scale, 0 no effect, 100 complete control

| Structure (SMILES) | Barnyardgrass plant response rating [1] | Rice plant response rating (rice (Oryza sativa)) | Sedge, Umbrella plant response rating [2] | Ducksalad plant response rating [3] | Plant response rating, Blackgrass ([4]; 31 g ai/ha, Postemergence) | Plant response rating, Blackgrass ([4]; 125 g ai/ha, postemergence) | Plant response rating, Galium [5] | Plant response rating, Corn (corn (Zea mays); 31 g ai/ha, Postemergence) | Plant response rating, Corn (corn (Zea mays); 125 g ai/ha, postemergence) | Plant response rating, Barnyardgrass [6, 12] | Plant response rating, Barnyardgrass [6, 13] | Plant response rating, Barnyardgrass [6, 14] | Barnyardgrass plant response rating ([6]; Preemergence, 125 g ai/ha) | Plant response rating, Pigweed [7, 13] | Plant response rating, Pigweed [7, 14] | Pigweed plant response rating ([7]; Preemergence, 125 g ai/ha) | Plant response rating, Ragweed [8, 13] | Plant response rating, Ragweed [8, 14] | Ragweed plant response rating ([8]; Preemergence, 125 g ai/ha) | Plant response rating, Ryegrass, Italian [9, 13] | other results |
| --- | --- | --- | --- | --- | --- | --- | --- | --- | --- | --- | --- | --- | --- | --- | --- | --- | --- | --- | --- | --- | --- |
| FC(F)(F)c1cc(-c2c(Cl)cccc2Oc2ncc(Br)cn2)on1 [Compound 127] | 50 | 60 | 100 | 100 | 30 | 90 | 100 | 20 | 50 | 30 | 70 | 100 | 90 | 100 | 100 | 100 | 10 | 50 | 30 | 30 | Plant response rating, Ryegrass, Italian [9, 14]: 90; Ryegrass, Italian plant response rating ([9]; Preemergence, 125 g ai/ha): 90; Plant response rating, Foxtail, Giant [10, 12]: 50; Plant response rating, Foxtail, Giant [10, 13]: 100; Plant response rating, Foxtail, Giant [10, 14]: 90; Foxtail, Giant plant response rating ([10]; Preemergence, 125 g ai/ha): 100; Plant response rating, Wheat [11]: 20; Plant response rating, Kochia (kochia (Kochia scoparia); [13]): 80; Plant response rating, Kochia (kochia (Kochia scoparia); [14]): 90; Kochia plant response rating (kochia (Kochia scoparia); Preemergence, 125 g ai/ha): 90 |
| FC(F)(F)COCc1cc(-c2ccccc2Oc2ncc(Cl)cn2)on1 [Compound 128] | 0 | 0 | 0 | 0 | 0 | 20 | 30 | 0 | 10 | 0 | 0 | 10 | 0 | 0 | 60 | 40 | 0 | 10 | 0 | 0 | Plant response rating, Ryegrass, Italian [9, 14]: 0; Ryegrass, Italian plant response rating ([9]; Preemergence, 125 g ai/ha): 0; Plant response rating, Foxtail, Giant [10, 12]: 0; Plant response rating, Foxtail, Giant [10, 13]: 0; Plant response rating, Foxtail, Giant [10, 14]: 10; Foxtail, Giant plant response rating ([10]; Preemergence, 125 g ai/ha): 10; Plant response rating, Wheat [11]: 0; Plant response rating, Kochia (kochia (Kochia scoparia); [13]): 0; Plant response rating, Kochia (kochia (Kochia scoparia); [14]): 50; Kochia plant response rating (kochia (Kochia scoparia); Preemergence, 125 g ai/ha): 0 |
| FC(F)(F)COCc1cc(-c2ccccc2Oc2ncc(Br)cn2)on1 [Compound 129] | 0 | 0 | 0 | 0 | 0 | 0 | 10 | 0 | 10 | 0 | 0 | 10 | 0 | 0 | 30 | 0 | 0 | 0 | 0 | 0 | Plant response rating, Ryegrass, Italian [9, 14]: 0; Ryegrass, Italian plant response rating ([9]; Preemergence, 125 g ai/ha): 0; Plant response rating, Foxtail, Giant [10, 12]: 0; Plant response rating, Foxtail, Giant [10, 13]: 0; Plant response rating, Foxtail, Giant [10, 14]: 10; Foxtail, Giant plant response rating ([10]; Preemergence, 125 g ai/ha): 0; Plant response rating, Wheat [11]: 0; Plant response rating, Kochia (kochia (Kochia scoparia); [13]): 0; Plant response rating, Kochia (kochia (Kochia scoparia); [14]): 10; Kochia plant response rating (kochia (Kochia scoparia); Preemergence, 125 g ai/ha): 0 |
| FC(F)Oc1cccc(Oc2ncc(Cl)cn2)c1-c1cc(C(F)F)no1 [Compound 132] | 30 | 20 | 75 | 40 | 20 | 50 | 90 | 10 | 30 | 20 | 20 | 50 | 60 | 90 | 100 | 100 | 0 | 30 | 40 | 0 | Plant response rating, Ryegrass, Italian [9, 14]: 40; Ryegrass, Italian plant response rating ([9]; Preemergence, 125 g ai/ha): 30; Plant response rating, Foxtail, Giant [10, 12]: 30; Plant response rating, Foxtail, Giant [10, 13]: 60; Plant response rating, Foxtail, Giant [10, 14]: 70; Foxtail, Giant plant response rating ([10]; Preemergence, 125 g ai/ha): 90; Plant response rating, Wheat [11]: 10; Plant response rating, Kochia (kochia (Kochia scoparia); [13]): 0; Plant response rating, Kochia (kochia (Kochia scoparia); [14]): 60; Kochia plant response rating (kochia (Kochia scoparia); Preemergence, 125 g ai/ha): 0 |
| FC(c1cc(-c2ccccc2Oc2ncc(Cl)cn2)no1)C(F)(F)F (stereo not drawn) [Compound 133] | 40 | 40 | 80 | 80 | 30 | 70 | 100 | 10 | 30 | 20 | 30 | 60 | 70 | 90 | 100 | 100 | 0 | 30 | 10 | 0 | Plant response rating, Ryegrass, Italian [9, 14]: 30; Ryegrass, Italian plant response rating ([9]; Preemergence, 125 g ai/ha): 50; Plant response rating, Foxtail, Giant [10, 12]: 20; Plant response rating, Foxtail, Giant [10, 13]: 70; Plant response rating, Foxtail, Giant [10, 14]: 50; Foxtail, Giant plant response rating ([10]; Preemergence, 125 g ai/ha): 90; Plant response rating, Wheat [11]: 10; Plant response rating, Kochia (kochia (Kochia scoparia); [13]): 50; Plant response rating, Kochia (kochia (Kochia scoparia); [14]): 90; Kochia plant response rating (kochia (Kochia scoparia); Preemergence, 125 g ai/ha): 90 |

Source: patent publication US10131652B2, “Pyrimidinyloxy benzene derivatives as herbicides” (E. I. DU PONT DE NEMOURS AND COMPANY, priority 2014, dated 2018)
